Data on 39 compounds can be found in patent US20150239889A1, “PYRAZOLOPYRIMIDINE COMPOUND” (MITSUBISHI TANABE PHARMA CORPORATION, priority 2012, published 2015).

The target of assay [1] is T1, human HIF-PHD3 (Homo sapiens, UniProt Q9H6Z9).
T1 construct: purchased CrystalGenomics Ltd
As to the kind of experiment: HIF-PHD inhibition assay (fluorescence polarization), human HIF-PHD3. The format is biochemical. The following applies: 2-oxoglutaric acid 166 μmol/L. How it is done:
(§1) The activity of the test compound to inhibit human HIF-PHD2 and human HIF-PHD3 was determined.
(§2) The value of enzyme activity was calculated by subtracting the value of fluorescence polarization before addition of the enzyme from the value of fluorescence polarization after addition of enzyme (mP value).
(§3) FAM: 5′-fluoresceinamide ACA: aminocaproic acid

Assay [2] concerns the target T2, human HIF-PHD2 (Homo sapiens, UniProt Q9GZT9).
T2 construct: purchased CrystalGenomics Ltd
As to the kind of experiment: HIF-PHD inhibition assay (fluorescence polarization), human HIF-PHD2. In kind it is biochemical. The following applies: 2-oxoglutaric acid 3.33 μmol/L. How it is done:
as §1, §2, §3

T1 sequence (Q9H6Z9 whole entry): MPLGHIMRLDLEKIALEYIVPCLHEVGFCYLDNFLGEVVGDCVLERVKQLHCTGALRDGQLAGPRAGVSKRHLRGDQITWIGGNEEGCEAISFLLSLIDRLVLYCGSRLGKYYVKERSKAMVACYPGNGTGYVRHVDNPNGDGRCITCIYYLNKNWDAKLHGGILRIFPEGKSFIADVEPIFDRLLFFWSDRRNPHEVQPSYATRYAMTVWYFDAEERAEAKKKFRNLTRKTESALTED
T2 sequence (Q9GZT9 2-426 limits assumed): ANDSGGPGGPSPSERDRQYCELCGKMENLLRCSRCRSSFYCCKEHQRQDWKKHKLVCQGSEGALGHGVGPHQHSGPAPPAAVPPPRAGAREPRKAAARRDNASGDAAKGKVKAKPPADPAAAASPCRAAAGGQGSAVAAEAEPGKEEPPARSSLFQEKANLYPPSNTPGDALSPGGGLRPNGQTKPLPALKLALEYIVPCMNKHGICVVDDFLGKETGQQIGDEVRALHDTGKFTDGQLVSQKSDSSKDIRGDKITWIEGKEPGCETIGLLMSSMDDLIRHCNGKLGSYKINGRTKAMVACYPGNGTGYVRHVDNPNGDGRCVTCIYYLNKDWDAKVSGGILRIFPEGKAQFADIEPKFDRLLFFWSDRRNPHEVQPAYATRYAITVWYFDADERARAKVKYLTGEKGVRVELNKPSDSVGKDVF

Take `CCC(C)(C)Cn1ncc2nc(-n3cc(C(=O)O)cn3)nc(O)c21` [Example 492]: the IC50 (as a rule, the concentration needed to halve the response being measured) in assay [1] stood at 440 nM; in assay [2], 110 nM.

As for `CCC(c1ccc(C)c(Cl)c1)n1ncc2nc(-n3cc(C(=O)O)cn3)nc(O)c21` (single isomer, unassigned) [Example 349], the IC50 in assay [1] was 390 nM; in assay [2], 67 nM.

Consider `CC(C)n1ncc2nc(-n3cc(C(=O)O)cn3)nc(O)c21` [Example 486], for which the IC50 in assay [1] stood at 2200 nM; in assay [2], 120 nM.

On to `O=C(O)c1cnn(-c2nc(O)c3c(cnn3[C@@H]3CCc4ccccc43)n2)c1` [Example 396], for which the results for the IC50 in assay [1] and in assay [2] were 340 nM and 47 nM, respectively.

As to `CC1(C)CCCC1n1ncc2nc(-n3cc(C(=O)O)cn3)nc(O)c21` (single isomer, unassigned) [Example 418], the IC50 came to 910 nM in assay [1] and 83 nM in assay [2].

With `O=C(O)c1cnn(-c2nc(O)c3c(cnn3Cc3ccc(-c4ccccc4C4CC4)cc3)n2)c1` [Example 60], the IC50 in assay [1] was 77 nM; in assay [2], 28 nM.

`Cc1ccc(C(C2CC2)n2ncc3nc(-n4cc(C(=O)O)cn4)nc(O)c32)cc1` (single isomer, unassigned) [Example 369]: the IC50 worked out at 400 nM in assay [1] and 35 nM in assay [2].

For `Cc1ccc([C@@H](C)n2ncc3nc(-n4cc(C(=O)O)cn4)nc(O)c32)cc1C(F)(F)F` [Example 277], the IC50 in assay [1] was 610 nM; in assay [2], 61 nM.

Take `CC(c1cc(F)cc(Cl)c1)n1ncc2nc(-n3cc(C(=O)O)cn3)nc(O)c21` (stereo not drawn) [Example 305]: the IC50 in assay [1] is 590 nM; in assay [2], 59 nM.

In the case of `C[C@@H](c1ccc(F)cc1F)n1ncc2nc(-n3cc(C(=O)O)cn3)nc(O)c21` [Example 255], the values for the IC50 in assay [1] and in assay [2] were 540 nM and 64 nM, respectively.

Turning to `CCC(c1ccc(Cl)c(C)c1)n1ncc2nc(-n3cc(C(=O)O)cn3)nc(O)c21` (single isomer, unassigned) [Example 347], the IC50 in assay [1] is 400 nM; in assay [2] it was 38 nM.

With `O=C(O)c1cnn(-c2nc(O)c3c(cnn3C(c3ccc(F)cc3)C3CC3)n2)c1` (single isomer, unassigned) [Example 367], the IC50 in assay [1] was found to be 350 nM; in assay [2] it was 34 nM.

As for `CC(C)[C@H]1CC[C@H](n2ncc3nc(-n4cc(C(=O)O)cn4)nc(O)c32)CC1` [Example 389], the IC50 in assay [1] amounted to 790 nM; in assay [2], 76 nM.

For the compound `Cc1nn([C@@H](C)c2ccc(F)cc2F)c2c(O)nc(-n3cc(C(=O)O)cn3)nc12` [Example 451], the IC50 in assay [1] worked out at 840 nM; in assay [2], 91 nM.

Turning to `CC1(C)CC(=O)N(c2ccc(Cn3ncc4nc(-n5cc(C(=O)O)cn5)nc(O)c43)cc2)C1` [Example 420], the half-inhibitory concentration (IC50) worked out at 490 nM in assay [1] and 62 nM in assay [2].

Regarding `C[C@H]1CC[C@@H](n2ncc3nc(-n4cc(C(=O)O)cn4)nc(O)c32)CC1` [Example 385], the IC50 in assay [1] was 380 nM; in assay [2] it was 130 nM.

Regarding `CC(C)(C)[C@H]1CC[C@H](Cn2nc(Cl)c3nc(-n4cc(C(=O)O)cn4)nc(O)c32)CC1` [Example 225], the IC50 stood at 150 nM in assay [1] and 22 nM in assay [2].

For `Cc1cc(C)cc(C(C)n2ncc3nc(-n4cc(C(=O)O)cn4)nc(O)c32)c1` (stereo not drawn) [Example 309], the IC50 in assay [1] was determined as 680 nM; in assay [2] it was 94 nM.

With `CC(C)[C@@H]1CC[C@@H](C)C[C@@H]1n1ncc2nc(-n3cc(C(=O)O)cn3)nc(O)c21` [Example 403], the IC50 came to 940 nM in assay [1] and 140 nM in assay [2].

Consider `Cc1ccc(C(C)n2ncc3nc(-n4cc(C(=O)O)cn4)nc(O)c32)cc1F` (single isomer, unassigned) [Example 296], for which the figures for the IC50 in assay [1] and in assay [2] were 480 nM and 55 nM, respectively.

Take `CC(c1cc(Cl)cc(Cl)c1)n1ncc2nc(-n3cc(C(=O)O)cn3)nc(O)c21` (single isomer, unassigned) [Example 308]: the half-maximal inhibitory concentration (IC50) amounted to 510 nM in assay [1] and 54 nM in assay [2].

For `CC(C)(C)Cn1nc(F)c2nc(-n3cc(C(=O)O)cn3)nc(O)c21` [Example 499], the IC50 in assay [1] is 760 nM; in assay [2], 130 nM.

In the case of `CCCC(CCC)n1ncc2nc(-n3cc(C(=O)O)cn3)nc(O)c21` [Example 488], the IC50 was found to be 840 nM in assay [1] and 59 nM in assay [2].

`C[C@@H](c1cccc(F)c1)n1ncc2nc(-n3cc(C(=O)O)cn3)nc(O)c21` [Example 254]: the IC50 in assay [1] came out at 510 nM; in assay [2] it was 97 nM.

For `O=C(O)c1cnn(-c2nc(O)c3nn(CC4(COc5ccc6c(c5)CCCC6)CC4)cc3n2)c1` [Example 249], the figures for the IC50 in assay [1] and in assay [2] were 280 nM and 26 nM, respectively.

For the compound `CCC1CCCC(n2ncc3nc(-n4cc(C(=O)O)cn4)nc(O)c32)C1` (stereo not drawn) [Example 415], the concentration for half-maximal inhibition (IC50) was determined as 690 nM in assay [1] and 40 nM in assay [2].

For the compound `O=C(O)c1cnn(-c2nc(O)c3c(cnn3Cc3ccc(-c4ccc(Cl)cc4Cl)cc3)n2)c1` [Example 72], the IC50 worked out at 280 nM in assay [1] and 28 nM in assay [2].

On to `C[C@H](c1ccc(Cl)c(F)c1)n1ncc2nc(-n3cc(C(=O)O)cn3)nc(O)c21` [Example 270], for which the IC50 is 440 nM in assay [1] and 48 nM in assay [2].

On to `Cc1nn(C2CCCCC2)c2c(O)nc(-n3cc(C(=O)O)cn3)nc12` [Example 227], for which the IC50 in assay [1] was 3800 nM; in assay [2] it was 130 nM.

Take `CC(c1ccc(Cl)c(C(F)(F)F)c1)n1ncc2nc(-n3cc(C(=O)O)cn3)nc(O)c21` (single isomer, unassigned) [Example 316]: the IC50 amounted to 470 nM in assay [1] and 29 nM in assay [2].

For `C[C@@H](C1CCN(c2cccc(C(F)(F)F)c2)CC1)n1ncc2nc(-n3cc(C(=O)O)cn3)nc(O)c21` [Example 434], the results for the IC50 in assay [1] and in assay [2] were 420 nM and 28 nM, respectively.

As to `CC[C@H]1CC[C@H](n2ncc3nc(-n4cc(C(=O)O)cn4)nc(O)c32)CC1` [Example 388], the results for the IC50 in assay [1] and in assay [2] were 510 nM and 47 nM, respectively.

As for `Cc1ccc(C(F)(F)F)cc1[C@H](C)n1ncc2nc(-n3cc(C(=O)O)cn3)nc(O)c21` [Example 286], the IC50 in assay [1] is 820 nM; in assay [2], 96 nM.

As for `C[C@@H]1C[C@H](C)C[C@@H](n2ncc3nc(-n4cc(C(=O)O)cn4)nc(O)c32)C1` [Example 402], the IC50 stood at 710 nM in assay [1] and 24 nM in assay [2].

As to `CC(C)C(c1ccc(F)c(F)c1)n1ncc2nc(-n3cc(C(=O)O)cn3)nc(O)c21` (stereo not drawn) [Example 358], the IC50 in assay [1] was found to be 700 nM; in assay [2], 45 nM.

On to `CCC(c1ccc(F)c(Cl)c1)n1ncc2nc(-n3cc(C(=O)O)cn3)nc(O)c21` (stereo not drawn) [Example 337], for which the IC50 in assay [1] worked out at 420 nM; in assay [2] it was 32 nM.

`CCC(c1cccc(C(F)(F)F)c1)n1ncc2nc(-n3cc(C(=O)O)cn3)nc(O)c21` (single isomer, unassigned) [Example 342]: the figures for the IC50 in assay [1] and in assay [2] were 480 nM and 36 nM, respectively.

As for `O=C(O)c1cnn(-c2nc(O)c3c(cnn3C(c3ccc(F)c(Cl)c3)C3CC3)n2)c1` (stereo not drawn) [Example 370], the figures for the IC50 in assay [1] and in assay [2] were 380 nM and 56 nM, respectively.

As to `Cc1nn(CC2CCCC2)c2c(O)nc(-n3cc(C(=O)O)cn3)nc12` [Example 229], the values for the IC50 in assay [1] and in assay [2] were 2800 nM and 50 nM, respectively.
